Read-outs that look alike come from different tables or passages of the source.
Experiments:
Assay in all cases: MIC of compounds alone and combined with antibacterials, broth microdilution (CLSI)
Assay type in all cases: cell-based
[1] = test system: Citrobacter freundii (CFR) isolates; conditions: for MIC: Citrobacter freundii, ATB alone, read-out: MIC
How it was run: (§1)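 First, log-phase suspensions are brought to a final 5·10^5 CFU/mL in cation-adjusted Mueller-Hinton broth. Then plates with compound, antibacterial, or both incubate 16-20 h at 35° C under ambient air. Finally, visual inspection gives the lowest growth-preventing concentration for each agent.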

[2] = test system: Enterobacter cloacae (ECL) isolates; conditions: for MIC: Enterobacter cloacae, ATB alone
How it was run: as §1

[3] = test system: Klebsiella oxytoca (KOX) isolates
How it was run: as §1

[4] = test system: Klebsiella pneumoniae (KPN) isolates
How it was run: as §1

CC(C)(O/N=C(\C(=O)N[C@@H]1C(=O)N2C(C(=O)[O-])=C(C[n+]3ccccc3)CS[C@H]12)c1csc(N)n1)C(=O)O [CAZ, Ceftazidime]
MIC ATB in combination ([1]; CFR UFR10, AF1 @ 4 μg/mL): <=0.25 μg/mL | MIC ATB in combination ([1]; CFR UFR10, AF1 @ 8 μg/mL): <=0.25 μg/mL | MIC ATB in combination ([1]; CFR UFR11, AF1 @ 4 μg/mL): 8 µg/mL | MIC ATB in combination ([1]; CFR UFR11, AF1 @ 8 μg/mL): 0.5 µg/mL | MIC ATB in combination ([1]; CFR UFR83, AF1 @ 4 μg/mL): 32 µg/mL | MIC ATB in combination ([1]; CFR UFR83, AF1 @ 8 μg/mL): 8 µg/mL | MIC ATB in combination ([1]; CFR UFR146, AF1 @ 4 μg/mL): 4 µg/mL | MIC ATB in combination ([1]; CFR UFR146, AF1 @ 8 μg/mL): 2 µg/mL | MIC ATB in combination ([1]; CFR UFR248, AF1 @ 4 μg/mL): <=0.25 μg/mL | MIC ATB in combination ([1]; CFR UFR248, AF1 @ 8 μg/mL): <=0.25 μg/mL | MIC ATB in combination ([1]; CFR UFR249, AF1 @ 4 μg/mL): <=0.25 μg/mL | MIC ATB in combination ([1]; CFR UFR249, AF1 @ 8 μg/mL): <=0.25 μg/mL | MIC ATB in combination ([1]; CFR UFR250, AF1 @ 4 μg/mL): 0.5 µg/mL | MIC ATB in combination ([1]; CFR UFR250, AF1 @ 8 μg/mL): <=0.25 μg/mL | MIC ([1]; strain CFR UFR11 (TEM-1, OXA-1, OXA-48)): 8 µg/mL | MIC ([1]; strain CFR UFR146 (TEM-1, KPC-2)): 32 µg/mL | MIC ATB in combination ([1]; strain CFR UFR253, antibacterial combined with AF1 @ 4 μg/mL): 4 µg/mL | MIC ATB in combination ([1]; strain CFR UFR253, antibacterial combined with AF1 @ 8 μg/mL): 2 µg/mL | MIC ATB in combination ([1]; strain CFR UFR254, antibacterial combined with AF1 @ 4 μg/mL): 0.5 µg/mL | MIC ATB in combination ([1]; strain CFR UFR254, antibacterial combined with AF1 @ 8 μg/mL): <=0.25 μg/mL | MIC ATB in combination ([2]; ECL 2185D, AF1 @ 8 μg/mL): 4 µg/mL | MIC ATB in combination ([2]; ECL 190310, AF1 @ 4 μg/mL): 4 µg/mL | MIC ATB in combination ([2]; ECL 190310, AF1 @ 8 μg/mL): 2 µg/mL | MIC ATB in combination ([2]; ECL 190408, AF1 @ 4 μg/mL): <=0.25 μg/mL | MIC ATB in combination ([2]; ECL 190408, AF1 @ 8 μg/mL): <0.25 µg/mL | MIC ATB in combination ([2]; ECL 200138, AF1 @ 4 μg/mL): 8 µg/mL | MIC ATB in combination ([2]; ECL 200138, AF1 @ 8 μg/mL): 2 µg/mL | MIC ATB in combination ([2]; ECL 200322, AF1 @ 4 μg/mL): 0.5 µg/mL | MIC ATB in combination ([2]; ECL 200322, AF1 @ 8 μg/mL): 0.5 µg/mL | MIC ATB in combination ([2]; ECL 260033, AF1 @ 4 μg/mL): 8 µg/mL | MIC ATB in combination ([2]; ECL 260033, AF1 @ 8 μg/mL): <0.25 µg/mL | MIC ATB in combination ([2]; ECL 260253, AF1 @ 4 μg/mL): 16 µg/mL | MIC ATB in combination ([2]; ECL 260253, AF1 @ 8 μg/mL): 4 µg/mL | MIC ATB in combination ([2]; ECL 260323, AF1 @ 8 μg/mL): 32 µg/mL | MIC ATB in combination ([2]; ECL 260508, AF1 @ 4 μg/mL): 1 µg/mL | MIC ATB in combination ([2]; ECL 260508, AF1 @ 8 μg/mL): <=0.25 μg/mL | MIC ATB in combination ([2]; ECL NEM146383, AF1 @ 4 μg/mL): 2 µg/mL | MIC ATB in combination ([2]; ECL NEM146383, AF1 @ 8 μg/mL): 2 µg/mL | MIC ATB in combination ([2]; ECL P99, AF1 @ 4 μg/mL): 2 µg/mL | MIC ATB in combination ([2]; ECL P99, AF1 @ 8 μg/mL): <=0.25 μg/mL | MIC ATB in combination ([2]; ECL UFR12, AF1 @ 4 μg/mL): 0.5 µg/mL | MIC ATB in combination ([2]; ECL UFR12, AF1 @ 8 μg/mL): <=0.25 μg/mL | MIC ATB in combination ([2]; ECL UFR13, AF1 @ 4 μg/mL): 0.5 µg/mL | MIC ATB in combination ([2]; ECL UFR13, AF1 @ 8 μg/mL): 0.5 µg/mL | MIC ATB in combination ([2]; ECL UFR14, AF1 @ 4 μg/mL): 2 µg/mL | MIC ATB in combination ([2]; ECL UFR14, AF1 @ 8 μg/mL): 1 µg/mL | MIC ATB in combination ([2]; ECL UFR60, AF1 @ 4 μg/mL): 16 µg/mL | MIC ATB in combination ([2]; ECL UFR60, AF1 @ 8 μg/mL): 4 µg/mL | MIC ATB in combination ([2]; ECL UFR70, AF1 @ 4 μg/mL): 2 µg/mL | MIC ATB in combination ([2]; ECL UFR70, AF1 @ 8 μg/mL): 0.5 µg/mL | MIC ATB in combination ([2]; ECL UFR84, AF1 @ 4 μg/mL): 4 µg/mL | MIC ATB in combination ([2]; ECL UFR84, AF1 @ 8 μg/mL): 1 µg/mL | MIC ATB in combination ([2]; ECL UFR85, AF1 @ 4 μg/mL): 1 µg/mL | MIC ATB in combination ([2]; ECL UFR85, AF1 @ 8 μg/mL): <=0.25 μg/mL | MIC ATB in combination ([2]; ECL UFR194, AF1 @ 4 μg/mL): 0.5 µg/mL | MIC ATB in combination ([2]; ECL UFR194, AF1 @ 8 μg/mL): <=0.25 μg/mL | MIC ATB in combination ([2]; ECL UFR200, AF1 @ 4 μg/mL): 0.5 µg/mL | MIC ATB in combination ([2]; ECL UFR200, AF1 @ 8 μg/mL): <=0.25 μg/mL | MIC ([2]; strain ECL UFR198 (TEM-1, SHV-12, CTX-M-15, DHA-1, OXA-1, OXA-48)): > 256 µg/mL | MIC ([2]; strain ECL 190310 (AmpC)): 256 µg/mL | MIC ([2]; strain ECL 200138 (AmpC)): > 256 µg/mL | MIC ([2]; strain ECL 260033 (AmpC)): 512 µg/mL | MIC ([2]; strain ECL 260323 (AmpC)): > 256 µg/mL | MIC ([2]; strain ECL UFR12 (CTX-M-9, OXA-48)): 2 µg/mL | MIC ([2]; strain ECL UFR13 (TEM-1, SHV-12, CTX-M-9, OXA-48)): > 256 µg/mL | MIC ([2]; strain ECL UFR14 (TEM-1, SHV-12, CTX-M-15, DHA-1, OXA-1, OXA-48)): > 256 µg/mL | MIC ([2]; strain ECL UFR194 (OXA-48)): 1 µg/mL | MIC ([2]; strain ECL UFR196 (TEM-1, CTX-M-15, OXA-1, OXA-48)): > 256 µg/mL | MIC ([2]; strain ECL UFR200 (TEM-1, SHV-12, KPC-2)): > 256 µg/mL | MIC ATB in combination ([2]; strain ECL UFR195, antibacterial combined with AF1 @ 4 μg/mL): 1 µg/mL | MIC ATB in combination ([2]; strain ECL UFR195, antibacterial combined with AF1 @ 8 μg/mL): 0.5 µg/mL | MIC ATB in combination ([2]; strain ECL UFR196, antibacterial combined with AF1 @ 4 μg/mL): 2 µg/mL | MIC ATB in combination ([2]; strain ECL UFR196, antibacterial combined with AF1 @ 8 μg/mL): 0.5 µg/mL | MIC ATB in combination ([2]; strain ECL UFR197, antibacterial combined with AF1 @ 4 μg/mL): 1 µg/mL | MIC ATB in combination ([2]; strain ECL UFR197, antibacterial combined with AF1 @ 8 μg/mL): 0.5 µg/mL | MIC ATB in combination ([2]; strain ECL UFR198, antibacterial combined with AF1 @ 4 μg/mL): 4 µg/mL | MIC ATB in combination ([2]; strain ECL UFR198, antibacterial combined with AF1 @ 8 μg/mL): 4 µg/mL | MIC ATB in combination ([3]; KOX UFR21, AF1 @ 4 μg/mL): 2 µg/mL | MIC ATB in combination ([3]; KOX UFR21, AF1 @ 8 μg/mL): <=0.25 μg/mL | MIC ATB in combination ([3]; KOX UFR173, AF1 @ 8 μg/mL): <=0.25 μg/mL | MIC ATB in combination ([3]; KOX UFR223, AF1 @ 4 μg/mL): <=0.25 μg/mL | MIC ATB in combination ([3]; KOX UFR223, AF1 @ 8 μg/mL): <=0.25 μg/mL | MIC ATB in combination ([3]; KOX UFR224, AF1 @ 4 μg/mL): <=0.25 μg/mL | MIC ATB in combination ([3]; KOX UFR224, AF1 @ 8 μg/mL): <=0.25 μg/mL | MIC ([3]; Klebsiella oxytoca, strain KOX UFR173 (OXY2-2), ATB alone, read-out: MIC): 8 µg/mL | MIC ATB in combination ([4]; KPN 6299, AF1 @ 4 μg/mL): 0.5 µg/mL | MIC ATB in combination ([4]; KPN 6299, AF1 @ 8 μg/mL): <=0.25 μg/mL | MIC ATB in combination ([4]; KPN 110376, AF1 @ 4 μg/mL): <=0.25 μg/mL | MIC ATB in combination ([4]; KPN 110376, AF1 @ 8 μg/mL): <=0.25 μg/mL | MIC ATB in combination ([4]; KPN 131119, AF1 @ 4 μg/mL): 0.5 µg/mL

From patent US20200017496A1 (priority 2017, published 2020)
